Numbered stars: 1 amine (or outer) side, 2 acyl side, 3 side chain; on linkers, the order of the positions; unused ones are H or OH. Bridge positions count the residues as written; N and C are the ends. Square brackets hold non-standard residues; d marks the D form. Peptide text beside a SMILES is read from it. * marks the point of attachment. Trp(7-aza,1-CH2COOH) = N[C@@H](Cc1cn(CC(=O)O)c2ncccc12)C(=O)O; Trp(βS-Me,7-OMe) = COc1cccc2c([C@H](C)[C@H](N)C(=O)O)c[nH]c12; X51 = CCC[C@@H](c1c[nH]c2ccccc12)[C@H](N[*:1])C(=O)[*:2]; Phe(4-CH2SO3H) = N[C@@H](Cc1ccc(CS(=O)(=O)O)cc1)C(=O)O; Phe(4-SO2NH2) = N[C@@H](Cc1ccc(S(N)(=O)=O)cc1)C(=O)O; Trp(7-CN) = N#Cc1cccc2c(C[C@H](N)C(=O)O)c[nH]c12; Trp(7-Cl) = N[C@@H](Cc1c[nH]c2c(Cl)cccc12)C(=O)O; Phe(3-CONH2) = NC(=O)c1cccc(C[C@H](N)C(=O)O)c1; Phe(4-CONH2) = NC(=O)c1ccc(C[C@H](N)C(=O)O)cc1; Phe(4-COOH) = N[C@@H](Cc1ccc(C(=O)O)cc1)C(=O)O; 4Pal(3S-Me) = C[C@@H](c1ccncc1)[C@H](N)C(=O)O; X58 = O=C([C@H](CCCCC(F)(F)F)N[*:1])[*:2]; X63 = O=C([C@@H]1CC[C@H](O)CN1[*:1])[*:2]; Pip(5R-OH) = O=C(O)[C@@H]1CC[C@@H](O)CN1; X1 = O=C([C@@H]1CC[C@H](N[*:1])C1)[*:2]; Ala(2-furyl) = N[C@@H](Cc1ccco1)C(=O)O; Gly(But-3-enyl) = C=CCC[C@H](N)C(=O)O; Pip(4-aza) = O=C(O)[C@@H]1CNCCN1; 4Pal = N[C@@H](Cc1ccncc1)C(=O)O; NMeE = CN[C@@H](CCC(=O)O)C(=O)O; dHyp = O=C(O)[C@H]1C[C@H](O)CN1; Aad = N[C@@H](CCCC(=O)O)C(=O)O; Ahp(2) = CCCCC[C@H](N)C(=O)O; αMeS = C[C@](N)(CO)C(=O)O; Carboxymethyl = O=C(O)C*; Nle = CCCC[C@H](N)C(=O)O; Sar = CNCC(=O)O
What was measured:
[1] = target: T1, TNFα-induced NF-κB signal transduction pathway (TNFR1 signaling) in THP-1 cells (Homo sapiens, UniProt P19438); test: THP-1 Lucia NF-κB reporter cell assay, inhibition of TNFα-induced NF-κB signaling; type: cell-based; conditions: THP-1 NF-κB Lucia reporter cells, 10 ng/mL TNFα, 16-18 h, secreted luciferase; read-out: THP-1 IC50
T1 sequence (P19438 30-455): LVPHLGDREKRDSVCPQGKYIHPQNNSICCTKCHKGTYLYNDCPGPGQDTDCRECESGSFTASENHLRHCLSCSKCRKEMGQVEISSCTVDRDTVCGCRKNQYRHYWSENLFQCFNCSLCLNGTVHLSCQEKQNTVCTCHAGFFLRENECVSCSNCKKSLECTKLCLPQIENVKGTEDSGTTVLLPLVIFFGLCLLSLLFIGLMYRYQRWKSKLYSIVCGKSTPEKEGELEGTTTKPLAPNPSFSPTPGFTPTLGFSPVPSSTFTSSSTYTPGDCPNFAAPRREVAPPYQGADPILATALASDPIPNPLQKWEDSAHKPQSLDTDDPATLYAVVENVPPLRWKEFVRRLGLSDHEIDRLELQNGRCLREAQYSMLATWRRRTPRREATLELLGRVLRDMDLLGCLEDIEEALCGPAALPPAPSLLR
How it was run: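 IC50 from a 4-parameter logistic fit of secreted luciferase luminescence (QUANTI-Luc), normalised to min/max controls. Reporter THP-1 cells were exposed to peptides for 1 h at 37 °C before 10 ng/mL TNFα (final) was added overnight (16–18 h).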

[2] = target: T2, human soluble TNFR1 (sTNFR1) (Homo sapiens, UniProt P19438); test: Human sTNFR1-peptide displacement assay (LanthaScreen Eu TR-FRET binding assay)
T2 construct: made in house; host or cells: Sf21 (baculovirus)
T2 sequence (P19438 with tags, fused parts or gaps): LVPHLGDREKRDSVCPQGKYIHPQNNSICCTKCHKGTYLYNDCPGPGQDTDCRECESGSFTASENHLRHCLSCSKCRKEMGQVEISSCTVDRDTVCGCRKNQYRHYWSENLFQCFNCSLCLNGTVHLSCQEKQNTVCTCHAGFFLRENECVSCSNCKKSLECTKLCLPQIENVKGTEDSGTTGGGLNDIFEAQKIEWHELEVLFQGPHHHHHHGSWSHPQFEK
How it was run: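 Readout is the 665/615 nm TR-FRET ratio (Eu anti-His donor, streptavidin-Alexa647 acceptor), normalized to DMSO and saturating displacer, fit by Morrison-based five-parameter logistic for Kd^app. His-tagged sTNFR1 (1-211) prebound to 100 nM biotinylated peptide SEQ ID NO.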

| SMILES | IC50 [1] [nM] | Kd [2] [nM] | IC50 [2] [nM] |
| --- | --- | --- | --- |
| CCCCC[C@@H]1NC(=O)[C@@H]2CC[C@@H](C2)NC(=O)[C@H]([C@@H](C)c2c[nH]c3c(OC)cccc23)NC(=O)CN(C)C(=O)[C@H](Cc2ccc(C(N)=O)cc2)NC(=O)[C@H](Cc2ccc(C(N)=O)cc2)NC(=O)[C@](C)(CO)NC(=O)[C@H](Cc2c[nH]c3c(C#N)cccc23)NC(=O)[C@H](Cc2ccc(C(=O)O)cc2)NC(=O)[C@H](CC(N)=O)NC(=O)[C@H]2C[C@H](O)CN2C(=O)[C@H](Cc2c[nH]c3ccccc23)NC(=O)[C@H](CCCC(=O)O)NC(=O)[C@H]([C@@H](C)c2ccncc2)NC1=O [SEQ ID NO. 282] (cyclo([Aad]W[dHyp]N[Phe(4-COOH)][Trp(7-CN)][αMeS][Phe(4-CONH2)][Phe(4-CONH2)][Sar][Trp(βS-Me,7-OMe)][X1][Ahp(2)][4Pal(3S-Me)])) | 0.9 | 0.13 | – |
| CCCC[C@@H]1NC(=O)CSC[C@@H](C(N)=O)NC(=O)[C@H]([C@@H](C)c2c[nH]c3c(OC)cccc23)NC(=O)CN(C)C(=O)[C@H](Cc2ccc(O)cc2)NC(=O)[C@H](Cc2ccc(C(=O)O)cc2)NC(=O)[C@](C)(CO)NC(=O)[C@H](Cc2c[nH]c3c(Cl)cccc23)NC(=O)[C@H](Cc2ccco2)NC(=O)[C@H](CC(N)=O)NC(=O)[C@H]2CCCN2C(=O)[C@H](Cc2c[nH]c3ccccc23)NC(=O)[C@@H]2CNCCN2C(=O)[C@H](Cc2ccncc2)NC1=O [SEQ ID NO. 236] ({CH2CO}-[Nle][4Pal][Pip(4-aza)]W[dP]N[Ala(2-furyl)][Trp(7-Cl)][αMeS][Phe(4-COOH)]Y[Sar][Trp(βS-Me,7-OMe)]C-NH2; thioether N-14) | 4.2 | – | 0.9 |
| CCCC[C@@H]1NC(=O)[C@@H]2CC[C@@H](C2)NC(=O)[C@H]([C@@H](C)c2c[nH]c3c(OC)cccc23)NC(=O)CN(C)C(=O)[C@H](Cc2cccc(C(N)=O)c2)NC(=O)[C@H](Cc2ccc(C(N)=O)cc2)NC(=O)[C@](C)(CO)NC(=O)[C@H](Cc2c[nH]c3c(Cl)cccc23)NC(=O)[C@H](Cc2ccncc2)NC(=O)[C@H](CC(N)=O)NC(=O)[C@H]2C[C@H](O)CN2C(=O)[C@H](Cc2c[nH]c3ccccc23)NC(=O)[C@@H]2CC[C@H](O)CN2C(=O)[C@H](Cc2ccncc2)NC1=O [SEQ ID NO. 67] (cyclo([4Pal][Trp(7-Cl)][αMeS][Phe(4-CONH2)][Phe(3-CONH2)][Sar][Trp(βS-Me,7-OMe)][X1][Nle][4Pal][X63]W[dHyp]N)) | 0.4 | 0.2 | – |
| CCCC[C@@H]1NC(=O)CSC[C@@H](C(N)=O)NC(=O)[C@H]([C@@H](C)c2c[nH]c3c(OC)cccc23)NC(=O)CN(C)C(=O)[C@H](Cc2ccc(OC)cc2)NC(=O)[C@H](Cc2ccc(C(=O)O)cc2)NC(=O)[C@](C)(CO)NC(=O)[C@H](Cc2c[nH]c3c(Cl)cccc23)NC(=O)[C@H](Cc2ccc(C(N)=O)cc2)NC(=O)[C@H](CC(N)=O)NC(=O)[C@H](CCC(=O)O)N(C)C(=O)[C@H](Cc2c[nH]c3ccccc23)NC(=O)[C@@H]2CNCCN2C(=O)[C@H](Cc2ccncc2)NC1=O [SEQ ID NO. 162] ({CH2CO}-[Nle][4Pal][Pip(4-aza)]W[NMeE]N[Phe(4-CONH2)][Trp(7-Cl)][αMeS][Phe(4-COOH)]Y(Me)[Sar][Trp(βS-Me,7-OMe)]C-NH2; thioether N-14) | 0.1 | 0.56 | 0.69 |
| CCCC[C@@H]1NC(=O)[C@@H]2CC[C@@H](C2)NC(=O)[C@H]([C@@H](CCC)c2c[nH]c3ccccc23)NC(=O)CN(C)C(=O)[C@H](Cc2ccc(C(=O)O)cc2)NC(=O)[C@H](Cc2ccc(C(N)=O)cc2)NC(=O)[C@](C)(CO)NC(=O)[C@H](Cc2c[nH]c3c(Cl)cccc23)NC(=O)[C@H](Cc2ccc(C(=O)O)cc2)NC(=O)[C@H](CC(N)=O)NC(=O)[C@H]2C[C@H](O)CN2C(=O)[C@H](Cc2c[nH]c3ccccc23)NC(=O)[C@@H]2CC[C@@H](O)CN2C(=O)[C@H](Cc2ccncc2)NC1=O [SEQ ID NO. 27] (cyclo([4Pal][Pip(5R-OH)]W[dHyp]N[Phe(4-COOH)][Trp(7-Cl)][αMeS][Phe(4-CONH2)][Phe(4-COOH)][Sar][X51][X1][Nle])) | 0.5 | 0.1 | – |
| C=CCC[C@@H]1NC(=O)[C@@H]2CC[C@@H](C2)NC(=O)[C@H]([C@@H](C)c2c[nH]c3c(OC)cccc23)NC(=O)CN(C)C(=O)[C@H](Cc2ccc(C(N)=O)cc2)NC(=O)[C@H](Cc2ccc(C(N)=O)cc2)NC(=O)[C@](C)(CO)NC(=O)[C@H](Cc2c[nH]c3c(Cl)cccc23)NC(=O)[C@H](Cc2ccc(C(=O)O)cc2)NC(=O)[C@H](CC(N)=O)NC(=O)[C@H]2C[C@H](O)CN2C(=O)[C@H](Cc2c[nH]c3ccccc23)NC(=O)[C@@H]2CC[C@@H](O)CN2C(=O)[C@H](Cc2ccncc2)NC1=O [SEQ ID NO. 103] (cyclo([4Pal][Pip(5R-OH)]W[dHyp]N[Phe(4-COOH)][Trp(7-Cl)][αMeS][Phe(4-CONH2)][Phe(4-CONH2)][Sar][Trp(βS-Me,7-OMe)][X1][Gly(But-3-enyl)])) | 0.8 | 0.05 | – |
| COc1cccc2c([C@H](C)[C@@H]3NC(=O)CN(C)C(=O)[C@H](Cc4ccc(O)cc4)NC(=O)[C@H](Cc4ccc(C(=O)O)cc4)NC(=O)[C@](C)(CO)NC(=O)[C@H](Cc4c[nH]c5c(Cl)cccc45)NC(=O)[C@H](Cc4ccncc4)NC(=O)[C@H](CC(N)=O)NC(=O)[C@H](CCC(=O)O)N(C)C(=O)[C@H](Cc4c[nH]c5ccccc45)NC(=O)[C@@H]4CNCCN4C(=O)[C@H](Cc4ccncc4)NC(=O)[C@H](CCCCC(F)(F)F)NC(=O)[C@@H]4CC[C@@H](C4)NC3=O)c[nH]c12 [SEQ ID NO. 213] (cyclo([4Pal][Trp(7-Cl)][αMeS][Phe(4-COOH)]Y[Sar][Trp(βS-Me,7-OMe)][X1][X58][4Pal][Pip(4-aza)]W[NMeE]N)) | 1 | 0.31 | – |
| CCCC[C@@H]1NC(=O)[C@@H]2CC[C@@H](C2)NC(=O)[C@H]([C@@H](C)c2c[nH]c3c(OC)cccc23)NC(=O)CN(C)C(=O)[C@H](Cc2ccc(O)cc2)NC(=O)[C@H](Cc2ccc(C(=O)O)cc2)NC(=O)[C@](C)(CO)NC(=O)[C@H](Cc2c[nH]c3c(Cl)cccc23)NC(=O)[C@H](Cc2ccc(CS(=O)(=O)O)cc2)NC(=O)[C@H](CC(N)=O)NC(=O)[C@H](CCC(=O)O)N(C)C(=O)[C@H](Cc2c[nH]c3ccccc23)NC(=O)[C@@H]2CNCCN2C(=O)[C@H](Cc2ccncc2)NC1=O [SEQ ID NO. 171] (cyclo([4Pal][Pip(4-aza)]W[NMeE]N[Phe(4-CH2SO3H)][Trp(7-Cl)][αMeS][Phe(4-COOH)]Y[Sar][Trp(βS-Me,7-OMe)][X1][Nle])) | 0.9 | 0.19 | – |
| CCCC[C@@H]1NC(=O)[C@@H]2CC[C@@H](C2)NC(=O)[C@H]([C@@H](C)c2c[nH]c3c(OC)cccc23)NC(=O)CN(C)C(=O)[C@H](Cc2ccc(OCC(=O)O)cc2)NC(=O)[C@H](Cc2ccc(S(N)(=O)=O)cc2)NC(=O)[C@](C)(CO)NC(=O)[C@H](Cc2c[nH]c3c(C#N)cccc23)NC(=O)[C@H](Cc2ccncc2)NC(=O)[C@H](CC(N)=O)NC(=O)[C@H]2C[C@H](OCC(=O)O)CN2C(=O)[C@H](Cc2cn(CC(=O)O)c3ncccc23)NC(=O)[C@@H]2CC[C@@H](O)CN2C(=O)[C@H](Cc2ccncc2)NC1=O [SEQ ID NO. 115] (cyclo([4Pal][Trp(7-CN)][αMeS][Phe(4-SO2NH2)]Y(Carboxymethyl)[Sar][Trp(βS-Me,7-OMe)][X1][Nle][4Pal][Pip(5R-OH)][Trp(7-aza,1-CH2COOH)][dHyp](Carboxymethyl)N)) | 1.4 | 0.19 | – |
| CCCC[C@@H]1NC(=O)[C@@H]2CC[C@@H](C2)NC(=O)[C@H]([C@@H](C)c2c[nH]c3c(OC)cccc23)NC(=O)CN(C)C(=O)[C@H](Cc2c[nH]cn2)NC(=O)[C@H](Cc2ccc(C(=O)O)cc2)NC(=O)[C@](C)(CO)NC(=O)[C@H](Cc2c[nH]c3c(Cl)cccc23)NC(=O)[C@H](Cc2ccncc2)NC(=O)[C@H](CC(N)=O)NC(=O)[C@H](CCC(=O)O)N(C)C(=O)[C@H](Cc2c[nH]c3ccccc23)NC(=O)[C@@H]2CNCCN2C(=O)[C@H](Cc2ccncc2)NC1=O [SEQ ID NO. 178] (cyclo([4Pal][Trp(7-Cl)][αMeS][Phe(4-COOH)]H[Sar][Trp(βS-Me,7-OMe)][X1][Nle][4Pal][Pip(4-aza)]W[NMeE]N)) | 3.3 | 0.29 | – |

— patent US20240287138A1, “CYCLIC PEPTIDES FOR INHIBITING TNF RECEPTOR 1 ACTIVITY” (Merck Sharp & Dohme LLC, priority 2023, published 2024)
